Reference: patent US20210255193A1, “LYSINE REACTIVE PROBES AND USES THEREOF” (The Scripps Research Institute, priority 2017, published 2021)

Tests used:
Test in all cases: competitive isoTOP-ABPP
Assay type in all cases: binding
[1] = molecular target: T1, DNMT1 DNA (cytosine-5)-methyltransferase 1 (Homo sapiens, UniProt P26358); details: for isoTOP-ABPP reactivity ratio at lysine P26358_K45: 50 uM, 231 sol, in vitro; for isoTOP-ABPP ratio, lysine P26358_K45: 50 uM_231_sol_in vitro
T1 construct: isoTOP-ABPP experiments performed in cell lysates (in vitro); endogenous in cells; host or cells: soluble proteome of human cancer cell lines (MDA-MB-231; Ramos and Jurkat also prepared)
Method in brief: (§1)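 Cell lysate (0.5 ml) was pre-treated with fragment, 50 μM for activated esters or 100 μM for guanidinylating agents, versus DMSO, then labeled 1 h at ambient temperature with 0.1 mM STP-alkyne. Light/heavy TEV tags attached by CuAAC; R = DMSO/compound MS1 peak-area ratio, median per lysine.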

[2] = molecular target: T2, RTN4 Reticulon-4 (Homo sapiens, UniProt Q9NQC3); details: for isoTOP-ABPP reactivity ratio at lysine Q9NQC3_K1104: 50 uM, 231 sol, in vitro; for isoTOP-ABPP ratio, lysine Q9NQC3_K1104: 50 uM_231_sol_in vitro
T2 construct: endogenous in cells; host or cells: MDA-MB-231 lysate
T2 sequence (Q9NQC3 1-1192): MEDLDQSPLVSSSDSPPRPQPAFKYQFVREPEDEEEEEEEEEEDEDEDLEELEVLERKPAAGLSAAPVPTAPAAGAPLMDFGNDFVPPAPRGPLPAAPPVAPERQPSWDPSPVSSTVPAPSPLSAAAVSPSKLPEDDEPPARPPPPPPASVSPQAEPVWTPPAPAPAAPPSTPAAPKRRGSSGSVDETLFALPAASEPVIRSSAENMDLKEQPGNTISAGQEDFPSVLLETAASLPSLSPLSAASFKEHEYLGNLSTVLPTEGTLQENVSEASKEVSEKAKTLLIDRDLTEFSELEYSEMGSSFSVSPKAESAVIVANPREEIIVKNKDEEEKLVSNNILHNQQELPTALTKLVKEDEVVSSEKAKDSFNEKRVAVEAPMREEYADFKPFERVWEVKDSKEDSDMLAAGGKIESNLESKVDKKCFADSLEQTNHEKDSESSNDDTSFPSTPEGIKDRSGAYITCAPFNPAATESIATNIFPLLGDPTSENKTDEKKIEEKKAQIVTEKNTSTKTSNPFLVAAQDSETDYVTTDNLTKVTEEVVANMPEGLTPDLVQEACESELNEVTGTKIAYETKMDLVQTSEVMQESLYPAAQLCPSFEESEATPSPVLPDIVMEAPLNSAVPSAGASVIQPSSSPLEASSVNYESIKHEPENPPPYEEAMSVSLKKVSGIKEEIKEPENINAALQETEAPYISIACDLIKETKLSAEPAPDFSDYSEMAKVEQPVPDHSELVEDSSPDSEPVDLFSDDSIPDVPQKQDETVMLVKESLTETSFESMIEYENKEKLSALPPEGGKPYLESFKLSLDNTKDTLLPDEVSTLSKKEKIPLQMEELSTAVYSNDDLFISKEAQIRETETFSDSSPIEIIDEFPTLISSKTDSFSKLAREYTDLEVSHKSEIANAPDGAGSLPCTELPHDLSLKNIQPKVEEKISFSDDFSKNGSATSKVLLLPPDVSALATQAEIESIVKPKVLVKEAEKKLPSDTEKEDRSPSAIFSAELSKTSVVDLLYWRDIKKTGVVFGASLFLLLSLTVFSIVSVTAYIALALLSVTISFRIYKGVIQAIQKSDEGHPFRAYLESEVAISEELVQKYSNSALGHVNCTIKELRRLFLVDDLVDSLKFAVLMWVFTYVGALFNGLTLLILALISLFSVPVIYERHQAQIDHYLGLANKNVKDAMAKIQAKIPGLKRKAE
Method in brief: as §1

[3] = molecular target: T3, LRRC20 Leucine-rich repeat-containing protein 20 (Homo sapiens, UniProt Q8TCA0); details: for isoTOP-ABPP reactivity ratio at lysine Q8TCA0_K43: 50 uM, 231 sol, in vitro; for isoTOP-ABPP ratio, lysine Q8TCA0_K43: 50 uM_231_sol_in vitro
T3 construct: isoTOP-ABPP experiments performed in cell lysates (in vitro); endogenous in cells; host or cells: soluble proteome of human cancer cell lines (MDA-MB-231; Ramos and Jurkat also prepared)
T3 sequence (Q8TCA0 1-184): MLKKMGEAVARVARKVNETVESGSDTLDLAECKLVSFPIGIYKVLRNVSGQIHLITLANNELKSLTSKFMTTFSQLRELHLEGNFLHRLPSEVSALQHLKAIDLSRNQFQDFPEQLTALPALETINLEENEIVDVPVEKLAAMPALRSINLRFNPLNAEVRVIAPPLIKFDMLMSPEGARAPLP
Method in brief: as §1

T1 sequence (P26358 whole entry): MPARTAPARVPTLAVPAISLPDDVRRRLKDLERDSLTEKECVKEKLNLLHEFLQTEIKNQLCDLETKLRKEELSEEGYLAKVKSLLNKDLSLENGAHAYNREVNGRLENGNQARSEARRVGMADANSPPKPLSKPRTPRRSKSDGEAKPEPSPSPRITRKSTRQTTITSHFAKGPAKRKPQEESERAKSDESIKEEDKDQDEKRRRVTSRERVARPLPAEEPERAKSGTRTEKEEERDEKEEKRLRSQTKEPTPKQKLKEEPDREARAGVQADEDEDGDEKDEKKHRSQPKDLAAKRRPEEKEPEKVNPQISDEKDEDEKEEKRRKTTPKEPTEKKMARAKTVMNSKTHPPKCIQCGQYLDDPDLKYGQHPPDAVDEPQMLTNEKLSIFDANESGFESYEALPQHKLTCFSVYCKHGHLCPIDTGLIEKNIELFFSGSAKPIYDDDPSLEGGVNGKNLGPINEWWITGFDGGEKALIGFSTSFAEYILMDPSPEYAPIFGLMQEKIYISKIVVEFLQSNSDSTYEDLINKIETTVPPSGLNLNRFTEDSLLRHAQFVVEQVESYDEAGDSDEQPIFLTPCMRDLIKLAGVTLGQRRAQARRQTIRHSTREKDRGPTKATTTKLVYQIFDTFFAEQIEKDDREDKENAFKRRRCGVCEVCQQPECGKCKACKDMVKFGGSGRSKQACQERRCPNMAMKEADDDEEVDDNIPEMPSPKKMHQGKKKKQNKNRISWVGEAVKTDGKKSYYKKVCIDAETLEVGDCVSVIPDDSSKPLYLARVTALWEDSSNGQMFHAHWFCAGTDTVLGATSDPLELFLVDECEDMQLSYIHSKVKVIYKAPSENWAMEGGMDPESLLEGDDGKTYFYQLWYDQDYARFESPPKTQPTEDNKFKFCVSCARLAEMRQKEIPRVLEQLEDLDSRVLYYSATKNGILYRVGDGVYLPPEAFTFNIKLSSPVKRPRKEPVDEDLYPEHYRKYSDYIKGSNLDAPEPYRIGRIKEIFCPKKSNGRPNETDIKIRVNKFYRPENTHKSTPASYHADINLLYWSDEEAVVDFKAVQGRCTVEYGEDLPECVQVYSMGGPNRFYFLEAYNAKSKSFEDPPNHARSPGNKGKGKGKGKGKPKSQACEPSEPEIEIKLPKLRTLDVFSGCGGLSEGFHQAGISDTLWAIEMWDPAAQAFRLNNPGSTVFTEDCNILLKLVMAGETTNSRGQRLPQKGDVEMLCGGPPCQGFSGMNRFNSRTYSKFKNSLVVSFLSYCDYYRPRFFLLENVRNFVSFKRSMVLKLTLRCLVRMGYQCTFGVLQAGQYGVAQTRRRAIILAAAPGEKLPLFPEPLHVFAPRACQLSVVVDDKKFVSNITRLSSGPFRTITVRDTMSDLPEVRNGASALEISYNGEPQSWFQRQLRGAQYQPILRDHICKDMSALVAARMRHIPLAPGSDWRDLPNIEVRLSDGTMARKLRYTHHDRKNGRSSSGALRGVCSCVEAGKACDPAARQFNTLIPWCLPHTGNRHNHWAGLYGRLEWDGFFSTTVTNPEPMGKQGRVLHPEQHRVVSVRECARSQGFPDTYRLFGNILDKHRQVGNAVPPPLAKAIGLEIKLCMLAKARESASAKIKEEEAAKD

Structure (SMILES) | isoTOP-ABPP reactivity ratio at lysine P26358_K45 [1] | isoTOP-ABPP reactivity ratio at lysine Q9NQC3_K1104 [2] | isoTOP-ABPP reactivity ratio at lysine Q8TCA0_K43 [3] | isoTOP-ABPP ratio, lysine P26358_K45 [1] | isoTOP-ABPP ratio, lysine Q9NQC3_K1104 [2] | isoTOP-ABPP ratio, lysine Q8TCA0_K43 [3]
O=C(CCc1cn(-c2ccccc2)nc1-c1ccccc1)Oc1ccc([N+](=O)[O-])cc1[N+](=O)[O-] [fragment 29, 2,4-Dinitrophenyl 3-(1,3-diphenyl-1H-pyrazol-4-yl)propanoate] | 0.9 | 15.6 | 1.3 |  |  | 
Cn1cc(CC(=O)Oc2ccc([N+](=O)[O-])cc2[N+](=O)[O-])c2ccccc21 [fragment 32, 2,4-Dinitrophenyl 2-(1-methyl-1H-indol-3-yl)acetate] | 1.0 | 20.0 | 1.6 |  |  | 
N#Cc1ccc(C(=O)Oc2ccc([N+](=O)[O-])cc2[N+](=O)[O-])cc1 [fragment 44, 2,4-Dinitrophenyl 4-cyanobenzoate] |  |  |  | 0.7 | 2.6 | 1.1
O=C(ON1C(=O)CCC1=O)c1cc(C(F)(F)F)cc(C(F)(F)F)c1 [fragment 46, 3,5-Bis(trifluoromethyl)benzoic acid NHS ester] |  |  |  | 2.4 | 2.5 | 1.3
